Measured values as given in patent publication US20110112114A1, “INHIBITORS OF SERINE PROTEASES, PARTICULARLY HEPATITIS C VIRUS NS3 PROTEASE” (priority 1999, published 2011).

Biological target: HCV NS3 serine protease (Hepatitis C virus genotype 1a, UniProt P27958)
Experiment: biochemical
Settings: Ki from rate vs. [inhibitor] plots, Morrison tight binding competitive inhibition fit; with or without NS4A; 30 C, pH 7.8
Procedure: Peptides EDVVabuCSMSY (Abu designates—aminobutyric acid), […], […] and EDVV AbuC-p-nitroanilide was purchased from AnaSpec Inc. (San Jose, Calif.).
Cleavage reactions were quenched by the addition of an equal volume of a mixture of 10% TFA: acetonitrile (1:1) and activity was assessed on a reversed phase HPLC column (Rainin C18 Microsorb-MV, […], 4.6×250 mm; 0-50% acetonitrile, 0.1% TFA@3.33% min) using a Hewlett Packard 1050 instrument with auto-injection and diode array detection at 210 nm and 280 nm (where appropriate). Peptide elution fragments were collected and identified by mass spectrometry and N-terminal sequence analysis. Fragment identity and concentration was further verified by authentic, synthesized products. Initial rates of cleavage were determined at <20% substrate conversion and catalytic parameters were determined assuming Michaelis-Menten kinetics using the MultiFit program (Day Computing, Cambridge, Mass.).
Spectrophotometric assays were run in a 96-well microtiter plate at 30 C, using a SpectraMax 250 reader (Molecular Devices, Sunnyvale, Calif.) with kinetic capability. Cleavage of EDVV AbuC-p-nitroanilide (5A-pNA) substrate was performed with or without NS4A in the same buffer used for HPLC assays at 30 C, and pNA release was monitored at 405 nm. The extinction coefficient of p-nitroaniline is independent of pH at values of 5.5. and above [Tuppy, H., et al., Hoppe-Seyler's Z. Physiol. Chem., 329, pp. 278-288 (1962)]; Raybuck and Luong, unpublished observations).
Kinetic constants for the rapid equilibrium ordered bisubstrate reaction were determined from rate vs. [4A], [EDVV Abuc-pNa]data by non-linear least squares fitting to equation 1 [Morrison, J. F. Biochim. Biophys. Acta., 185, pp. 269-286 (1969)] as described in the text. Kii and Kis valkues for peptidyl inhibitors were determined from rate vs. [inhibitor], [substrate] data and fitting to the equation for mixed inhibition:
rate=Vmax[S]/{Km(1+[I]/Kis0+[S](1+[I]/Kii)}
The commercial program KinetAsyst (State College, Pa.) was used for both procedures. Ki values were calculated from rate vs. [inhibitor] plots by a nonlinear least squares fit of the data to the equation of Morrison for tight binding competitive inhibition [Morrison, J. F. Biochim. Biophys. Acta., 185, pp. 269-286 (1969)]. The KineTic program (BioKin Ltd) was used for this procedure.
Ki values are express in μM. Category “A” indicates <1 μM inhibition; category “B” indicates 1-100 μM inhibition; category “C” indicates >100 μM.

Chain of HCV NS3 serine protease (P27958 1027-1208): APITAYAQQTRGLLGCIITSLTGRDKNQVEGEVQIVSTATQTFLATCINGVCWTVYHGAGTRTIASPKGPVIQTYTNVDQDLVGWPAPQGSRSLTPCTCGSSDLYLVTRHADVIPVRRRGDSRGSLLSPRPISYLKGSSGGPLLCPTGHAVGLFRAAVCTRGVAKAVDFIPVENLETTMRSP

Row | Ki | SMILES
1 | 1 to 100 µM | CCC(C=O)NC(=O)c1cc(OCc2ccccc2)ccc1NC(=O)C(NC(=O)C(NC(=O)c1cnccn1)C(C)C)C(C)C (stereo not shown) [Compound 101]
2 | 1 to 100 µM | CCC(C=O)NC(=O)c1cc(OCc2ccccc2)ccc1N(C)C(=O)C(NC(=O)C(NC(=O)c1cnccn1)C(C)C)C(C)C (stereo not shown) [Compound 103]
3 | 1 to 100 µM | CCC(C=O)NC(=O)c1cc(OCc2ccccc2)ccc1NC(=O)C(NC(=O)c1c(O)ccc2ccccc12)C(C)C (stereo not shown) [Compound 104]
4 | 1 to 100 µM | CCC(C=O)NC(=O)c1cc(OCc2ccc(Cl)c(Cl)c2)ccc1NC(=O)C(NC(=O)C(NC(=O)c1cnccn1)C(C)C)C(C)C (stereo not shown) [Compound 107]
